Measurements as given in US10568975B2, “Nanoparticles for magnetic resonance imaging tracking and methods of making and using thereof” (The Johns Hopkins University, priority 2013, dated 2020).

Test: CEST contrast of surface-conjugated polymeric nanoparticles and DYD peptide
Assay type: physicochemical
Procedure: Polymeric particle preparation: The peptide contrast agent, propargylglycine-W-(DYD)6-NH2, was synthesized on a microwave-assisted peptide synthesizer Libertyl (CEM, USA). The CEST nanoparticles were then prepared by standard coupling chemistry. NH2PEG-N3 was coupled to carboxylates on the surface of polystyrene (PS) particles in the presence of EDC and NHS in 200 mM sodium borate buffer pH 7.8 at RT. Propargylglycine-W-(DYD)6-NH2 peptide was coupled with PS-PEG-N3 in the presence of catalytic amount of CuAcAc, TBTA, and excess ascorbic acid in sodium phosphate buffer pH 7, under nitrogen, using click chemistry. Biodegradable CEST nanoparticles based on the polymer of poly(lactic-co-glycolic) acid-co-PEG (PLGA-PEG) were synthesized using a similar procedure and formulated using a oil-in-water emulsion method.
The nanoparticles are suitable for tumor delivery. As the interior of the nanoparticles has reduced water accessibility compared to liposomes, the CEST agent was conjugated to the surface of the particle as shown in FIGS. 5(a) through 5(c). Two versions were prepared, one with a short (0.6 kDa) and a second with a longer PEG spacer (5.6 kDa). […] The DYD peptide provides contrast centered around 2.5 ppm from water, which should allow discrimination with the BA liposomes through multi-color CEST imaging.

CEST contrast centre, offset from water: around 2.5 ppm
Substance: propargylglycine-W-(DYD)6-NH2 [DYD peptide]
